Measurements published in paper PMC4303209, “A novel phosphatidylinositol 3-kinase (PI3K) inhibitor directs a potent FOXO-dependent, p53-independent cell cycle arrest phenotype characterized by the differential induction of a subset of FOXO-regulated genes” (Breast Cancer Research : BCR, 2014).

System: MCF-7 breast cancer cells
Test: Microarray gene expression analysis (Agilent whole human genome 4 x 44K; compound vs DMSO, LIMMA log2 fold change)
Type: cell-based
Conditions: cell cycle genes

With Cn1ncc2c(N3CCOCC3)nc(-c3cccc(O)c3)nc21 [ETP-45658] the “STAT5A log2FC” value (Gene 6776) was 0.569, the “STAT5B log2FC” value (Gene 6777) was 0.093 and the “AURKA log2FC” value (Gene 6790) was 0.163. For the same molecule, the “STK10 log2FC” value (Gene 6793) was -0.333, the “AURKC log2FC” value (Gene 6795) was 0.077 and the “SUV39H1 log2FC” value (Gene 6839) was -0.686. The “TACC1 log2FC” value (Gene 6867) was 0.112, the “ADAM17 log2FC” value (Gene 6868) was 0.578 and the “TAF1 log2FC” value (Gene 6872) was 0.237. For the same molecule, the “TAL1 log2FC” value (Gene 6886) was -0.533, the “TBX3 log2FC” value (Gene 6926) was -0.702 and the “TCF3 log2FC” value (Gene 6929) was -0.071. For the same molecule, the “DYNLT3 log2FC” value (Gene 6990) was -0.257, the “DYNLT1 log2FC” value (Gene 6993) was 0.039 and the “TERF1 log2FC” value (Gene 7013) was 0.607. For the same molecule, the “TERF2 log2FC” value (Gene 7014) was -0.131, the “TFAP4 log2FC” value (Gene 7023) was 0.268 and the “NR2F2 log2FC” value (Gene 7026) was 0.124. The “TFDP1 log2FC” value (Gene 7027) was -0.484, the “TFDP2 log2FC” value (Gene 7029) was 0.532 and the “TGFB1 log2FC” value (Gene 7040) was -0.640. The “THBS1 log2FC” value (Gene 7057) was -0.941, the “TNF log2FC” value (Gene 7124) was -1.647 and the “TNFAIP3 log2FC” value (Gene 7128) was -0.659. For the same molecule, the “TOP2A log2FC” value (Gene 7153) was 0.987, the “TOP2B log2FC” value (Gene 7155) was 1.103 and the “TOP3A log2FC” value (Gene 7156) was -0.181. For the same molecule, the “TP53 log2FC” value (Gene 7157) was -0.193, the “TP53BP2 log2FC” value (Gene 7159) was 0.300 and the “TPR log2FC” value (Gene 7175) was 0.896. The “TSC1 log2FC” value (Gene 7248) was 0.395, the “TSC2 log2FC” value (Gene 7249) was -0.413 and the “TSG101 log2FC” value (Gene 7251) was 0.390. The “TTK log2FC” value (Gene 7272) was 1.754, the “TUBG1 log2FC” value (Gene 7283) was -0.283 and the “UBA52 log2FC” value (Gene 7311) was 0.322. For the same molecule, the “UBB log2FC” value (Gene 7314) was 0.069, the “UBC log2FC” value (Gene 7316) was 0.294 and the “UBE2B log2FC” value (Gene 7320) was 0.582. The “UBE2D1 log2FC” value (Gene 7321) was 0.498, the “UBE2E1 log2FC” value (Gene 7324) was 0.262 and the “UBE2I log2FC” value (Gene 7329) was -0.395. The “WEE1 log2FC” value (Gene 7465) was -0.074, the “WNT5A log2FC” value (Gene 7474) was 0.075 and the “WNT10B log2FC” value (Gene 7480) was -0.451. The “WNT9A log2FC” value (Gene 7483) was 0.073, the “XPC log2FC” value (Gene 7508) was 0.604 and the “XRCC2 log2FC” value (Gene 7516) was -0.596. The “YWHAG log2FC” value (Gene 7532) was -0.492, the “ZNF16 log2FC” value (Gene 7564) was 0.343 and the “ZBTB17 log2FC” value (Gene 7709) was 0.065. For the same molecule, the “PTP4A1 log2FC” value (Gene 7803) was -0.345, the “EVI5 log2FC” value (Gene 7813) was 0.609 and the “ALMS1 log2FC” value (Gene 7840) was 0.617. For the same molecule, the “NR4A3 log2FC” value (Gene 8013) was 0.735, the “NUP214 log2FC” value (Gene 8021) was -0.742 and the “FOSL1 log2FC” value (Gene 8061) was -2.502. The “CUL5 log2FC” value (Gene 8065) was -0.432, the “YEATS4 log2FC” value (Gene 8089) was 1.304 and the “HMGA2 log2FC” value (Gene 8091) was -1.656. The “CHAF1B log2FC” value (Gene 8208) was 0.083, the “CLTCL1 log2FC” value (Gene 8218) was -0.209 and the “USP9X log2FC” value (Gene 8239) was 0.632. For the same molecule, the “SMC1A log2FC” value (Gene 8243) was 0.142, the “CDC7 log2FC” value (Gene 8317) was 0.500 and the “RAD54L log2FC” value (Gene 8438) was -0.289. The “CUL4B log2FC” value (Gene 8450) was 0.695, the “CUL4A log2FC” value (Gene 8451) was 0.552 and the “CUL1 log2FC” value (Gene 8454) was 0.479. The “KLF11 log2FC” value (Gene 8462) was 1.337, the “OFD1 log2FC” value (Gene 8481) was 1.019 and the “PKP4 log2FC” value (Gene 8502) was 0.170. For the same molecule, the “GAS7 log2FC” value (Gene 8522) was -0.364, the “DGKZ log2FC” value (Gene 8525) was -0.549 and the “CAMK1 log2FC” value (Gene 8536) was -0.088. For the same molecule, the “CDC14B log2FC” value (Gene 8555) was 0.259, the “CDK10 log2FC” value (Gene 8558) was 0.167 and the “MADD log2FC” value (Gene 8567) was 0.423. For the same molecule, the “DYNLL1 log2FC” value (Gene 8655) was -0.944, the “TNKS log2FC” value (Gene 8658) was 0.686 and the “BECN1 log2FC” value (Gene 8678) was 0.486. The “CDC23 log2FC” value (Gene 8697) was 0.451, the “CRADD log2FC” value (Gene 8738) was -0.101 and the “CCNK log2FC” value (Gene 8812) was -0.603. For the same molecule, the “BANF1 log2FC” value (Gene 8815) was -0.450, the “CDK5R1 log2FC” value (Gene 8851) was -0.154 and the “IER3 log2FC” value (Gene 8870) was -1.789. The “SPHK1 log2FC” value (Gene 8877) was -0.334, the “CDC16 log2FC” value (Gene 8881) was 0.890 and the “CCNA1 log2FC” value (Gene 8900) was 0.079. For the same molecule, the “TIMELESS log2FC” value (Gene 8914) was 0.236, the “PHOX2B log2FC” value (Gene 8929) was -0.044 and the “MBD4 log2FC” value (Gene 8930) was 0.489. For the same molecule, the “BTRC log2FC” value (Gene 8945) was 0.108, the “WASL log2FC” value (Gene 8976) was 0.239 and the “RNF8 log2FC” value (Gene 9025) was -0.050. The “PRC1 log2FC” value (Gene 9055) was 0.420, the “USP2 log2FC” value (Gene 9099) was -0.057 and the “USP8 log2FC” value (Gene 9101) was 0.690. For the same molecule, the “SMC3 log2FC” value (Gene 9126) was 1.332, the “EXO1 log2FC” value (Gene 9156) was 0.057 and the “ARHGEF2 log2FC” value (Gene 9181) was -0.734. The “ZW10 log2FC” value (Gene 9183) was 0.473, the “BUB3 log2FC” value (Gene 9184) was 0.588 and the “NOLC1 log2FC” value (Gene 9221) was -0.505. For the same molecule, the “CCPG1 log2FC” value (Gene 9236) was 0.930, the “MAPKAPK2 log2FC” value (Gene 9261) was -0.374 and the “PIWIL1 log2FC” value (Gene 9271) was 0.057. For the same molecule, the “RECQL5 log2FC” value (Gene 9400) was 0.154, the “ROCK2 log2FC” value (Gene 9475) was 0.291 and the “PSMF1 log2FC” value (Gene 9491) was -0.383. For the same molecule, the “VPS4B log2FC” value (Gene 9525) was 0.614, the “CLOCK log2FC” value (Gene 9575) was 0.069 and the “MAD2L1BP log2FC” value (Gene 9587) was -0.350. The “ARHGEF10 log2FC” value (Gene 9639) was 0.265, the “MDC1 log2FC” value (Gene 9656) was -0.639 and the “CEP135 log2FC” value (Gene 9662) was 0.532. The “KIAA0430 log2FC” value (Gene 9665) was 0.757, the “CROCC log2FC” value (Gene 9696) was -0.051 and the “ESPL1 log2FC” value (Gene 9700) was 0.453. For the same molecule, the “CEP57 log2FC” value (Gene 9702) was 1.199, the “UTP14C log2FC” value (Gene 9724) was 0.374 and the “KNTC1 log2FC” value (Gene 9735) was 0.636. For the same molecule, the “RASSF2 log2FC” value (Gene 9770) was 0.675, the “CKAP5 log2FC” value (Gene 9793) was 0.439 and the “SFI1 log2FC” value (Gene 9814) was -0.103. The “RB1CC1 log2FC” value (Gene 9821) was 1.457, the “MELK log2FC” value (Gene 9833) was 0.433 and the “GINS1 log2FC” value (Gene 9837) was -0.673. The “MAGI2 log2FC” value (Gene 9863) was 0.425, the “TLK1 log2FC” value (Gene 9874) was 0.392 and the “POM121 log2FC” value (Gene 9883) was -0.667. For the same molecule, the “KLHL21 log2FC” value (Gene 9903) was 0.769, the “DCLRE1A log2FC” value (Gene 9937) was 0.710 and the “USP3 log2FC” value (Gene 9960) was 0.530. The “THOC1 log2FC” value (Gene 9984) was 0.606, the “DMTF1 log2FC” value (Gene 9988) was 0.604 and the “CASP8AP2 log2FC” value (Gene 9994) was 0.813. For the same molecule, the “PDCD6IP log2FC” value (Gene 10015) was 0.516, the “BCL2L11 log2FC” value (Gene 10018) was 0.145 and the “CHAF1A log2FC” value (Gene 10036) was -0.375. For the same molecule, the “PARP3 log2FC” value (Gene 10039) was 0.325, the “TOM1L1 log2FC” value (Gene 10040) was 0.759 and the “SMC4 log2FC” value (Gene 10051) was 0.902. For the same molecule, the “ACTR2 log2FC” value (Gene 10097) was -0.298, the “RAD50 log2FC” value (Gene 10111) was 0.524 and the “KIF20A log2FC” value (Gene 10112) was 0.476. For the same molecule, the “OPTN log2FC” value (Gene 10133) was 0.838, the “AKAP9 log2FC” value (Gene 10142) was 1.382 and the “PSME3 log2FC” value (Gene 10197) was -1.314. For the same molecule, the “MPHOSPH9 log2FC” value (Gene 10198) was 0.470, the “MPHOSPH6 log2FC” value (Gene 10200) was -0.666 and the “MAEA log2FC” value (Gene 10296) was -0.219. The “PAK4 log2FC” value (Gene 10298) was -0.601, the “NPM2 log2FC” value (Gene 10361) was -0.152 and the “HMG20B log2FC” value (Gene 10362) was 0.276. The “CITED2 log2FC” value (Gene 10370) was 2.261.
